How the values were obtained:
Mus musculus [1] = experiment: Net log cell kill was determined after injecting 12.5 mg/kg intraperitoneally in CD2F1 mice; format: functional; conditions: route intraperitoneal
Mus musculus [2] = experiment: Net log cell kill was determined after injecting 25 mg/kg intraperitoneally in CD2F1 mice; format: functional; conditions: route intraperitoneal
Mus musculus [3] = experiment: Net log cell kill was determined after injecting 3.16 mg/kg intraperitoneally in CD2F1 mice; format: functional; conditions: route intraperitoneal
Mus musculus [4] = experiment: Body weight change of test animals to that of control was determined after injection at 6.25 mg/kg intraperitoneally in CD2F1 mice; format: functional; conditions: route intraperitoneal
Mus musculus [5] = experiment: Net log cell kill was determined after injecting 6.25 mg/kg intraperitoneally in CD2F1 mice; format: functional; conditions: route intraperitoneal
Mus musculus [6] = experiment: Body weight change of test animals to that of control was determined after injection at 100 mg/kg intraperitoneally in CD2F1 mice; format: functional; conditions: route intraperitoneal
Mus musculus [7] = experiment: Body weight change of test animals to that of control was determined after injection at 25 mg/kg intraperitoneally in CD2F1 mice; format: functional; conditions: route intraperitoneal
Mus musculus [8] = experiment: Body weight change of test animals to that of control was determined after injection at 3.16 mg/kg intraperitoneally in CD2F1 mice; format: functional; conditions: route intraperitoneal
Mus musculus [9] = experiment: Body weight change of test animals to that of control was determined after injection at 50 mg/kg intraperitoneally in CD2F1 mice; format: functional; conditions: route intraperitoneal
Mus musculus [10] = experiment: Toxicity day survivors was determined by the ratio of animals survived to that of test animals at 100 mg/kg intraperitoneally in CD2F1 mice; 3/6; format: organism-based; design: dose 100 mg/kg, route intraperitoneal; conditions: in vivo, ip
Mus musculus [11] = experiment: Toxicity day survivors was determined by the ratio of animals survived to that of test animals at 12.5 mg/kg intraperitoneally in CD2F1 mice; 6/6; format: organism-based; design: dose 12.5 mg/kg, route intraperitoneal; conditions: in vivo, ip
Mus musculus [12] = experiment: Toxicity day survivors was determined by the ratio of animals survived to that of test animals at 25 mg/kg intraperitoneally in CD2F1 mice; 6/6; format: organism-based; design: dose 25 mg/kg, route intraperitoneal; conditions: in vivo, ip
Mus musculus [13] = experiment: Toxicity day survivors was determined by the ratio of animals survived to that of test animals at 3.16 mg/kg intraperitoneally in CD2F1 mice; 6/6; format: organism-based; design: dose 3.16 mg/kg, route intraperitoneal; conditions: in vivo, ip
Mus musculus [14] = experiment: Toxicity day survivors was determined by the ratio of animals survived to that of test animals at 50 mg/kg intraperitoneally in CD2F1 mice; 6/6; format: organism-based; design: dose 50 mg/kg, route intraperitoneal; conditions: in vivo, ip
Mus musculus [15] = experiment: Toxicity day survivors was determined by the ratio of animals survived to that of test animals at 6.25 mg/kg intraperitoneally in CD2F1 mice; 6/6; format: organism-based; design: dose 6.25 mg/kg, route intraperitoneal; conditions: in vivo, ip
Mus musculus [16] = experiment: Ratio of treated to that of untreated tumor-bearing control animals at 6.25 mg/kg intraperitoneally in CD2F1 mice was determined; format: functional; conditions: route intraperitoneal
Mus musculus [17] = experiment: Ratio of treated to that of untreated tumor-bearing control animals at 12.5 mg/kg intraperitoneally in CD2F1 mice was determined; format: functional; conditions: route intraperitoneal
Mus musculus [18] = experiment: Ratio of treated to that of untreated tumor-bearing control animals at 25 mg/kg intraperitoneally in CD2F1 mice was determined; format: functional; conditions: route intraperitoneal
Mus musculus [19] = experiment: Ratio of treated to that of untreated tumor-bearing control animals at 3.16 mg/kg intraperitoneally in CD2F1 mice was determined; format: functional; conditions: route intraperitoneal
Mus musculus [20] = experiment: Body weight change of test animals to that of control was determined after injection at 12.5 mg/kg intraperitoneally in CD2F1 mice; format: functional; conditions: route intraperitoneal
Mus musculus [21] = experiment: Net log cell kill was determined after injecting 10 mg/kg intraperitoneally in CD2F1 mice; format: functional; conditions: route intraperitoneal
Mus musculus [22] = experiment: Net log cell kill was determined after injecting 2.5 mg/kg intraperitoneally in CD2F1 mice; format: functional; conditions: route intraperitoneal
Mus musculus [23] = experiment: Net log cell kill was determined after injecting 5 mg/kg intraperitoneally in CD2F1 mice; format: functional; conditions: route intraperitoneal
Mus musculus [24] = experiment: Body weight change of test animals to that of control was determined after injection at 10 mg/kg intraperitoneally in CD2F1 mice; format: functional; conditions: route intraperitoneal
Mus musculus [25] = experiment: (§1) Body weight change of test animals to that of control was determined after injection at 2.5 mg/kg intraperitoneally in CD2F1 mice; format: functional; conditions: route intraperitoneal
Mus musculus [26] = experiment: Body weight change of test animals to that of control was determined after injection at 20 mg/kg intraperitoneally in CD2F1 mice; format: functional; conditions: route intraperitoneal
Mus musculus [27] = experiment: Body weight change of test animals to that of control was determined after injection at 5 mg/kg intraperitoneally in CD2F1 mice; format: functional; conditions: route intraperitoneal
Mus musculus [28] = experiment: Toxicity day survivors was determined by the ratio of animals survived to that of test animals at 10 mg/kg intraperitoneally in CD2F1 mice; 6/6; format: organism-based; design: dose 10 mg/kg, route intraperitoneal; conditions: in vivo, ip
Mus musculus [29] = experiment: Toxicity day survivors was determined by the ratio of animals survived to that of test animals at 2.5 mg/kg intraperitoneally in CD2F1 mice; 6/6; format: organism-based; design: dose 2.5 mg/kg, route intraperitoneal; conditions: in vivo, ip
Mus musculus [30] = experiment: Toxicity day survivors was determined by the ratio of animals survived to that of test animals at 20 mg/kg intraperitoneally in CD2F1 mice; 6/6; format: organism-based; design: dose 20 mg/kg, route intraperitoneal; conditions: in vivo, ip
Mus musculus [31] = experiment: Toxicity day survivors was determined by the ratio of animals survived to that of test animals at 40 mg/kg intraperitoneally in CD2F1 mice; 0/6; format: organism-based; design: dose 40 mg/kg, route intraperitoneal; conditions: in vivo, ip
Mus musculus [32] = experiment: Toxicity day survivors was determined by the ratio of animals survived to that of test animals at 5 mg/kg intraperitoneally in CD2F1 mice; 6/6; format: organism-based; design: dose 5 mg/kg, route intraperitoneal; conditions: in vivo, ip
Mus musculus [33] = experiment: Ratio of treated to that of untreated tumor-bearing control animals at 5 mg/kg intraperitoneally in CD2F1 mice was determined; format: functional; conditions: route intraperitoneal
Mus musculus [34] = experiment: Ratio of treated to that of untreated tumor-bearing control animals at 10 mg/kg intraperitoneally in CD2F1 mice was determined; format: functional; conditions: route intraperitoneal
Mus musculus [35] = experiment: Ratio of treated to that of untreated tumor-bearing control animals at 2.5 mg/kg intraperitoneally in CD2F1 mice was determined; format: functional; conditions: route intraperitoneal
Mus musculus [36] = experiment: as §1; format: ADME, organism-based; design: dose 2.5 mg/kg, route intraperitoneal; conditions: in vivo, ip

COc1ccc2c(c1)CCn1c(C)c(COC(=O)NC(C)C)c(COC(=O)NC(C)C)c1-2
KE (Mus musculus [1]): -1.29
KE (Mus musculus [2]): -1.29
KE (Mus musculus [3]): -1.43
T-C (Mus musculus [4]): -2.1 g
KE (Mus musculus [5]): -1.51
T-C (Mus musculus [6]): -5.3 g
T-C (Mus musculus [7]): -5.6 g
T-C (Mus musculus [8]): -1.1 g
T-C (Mus musculus [9]): -6.6 g
TDS (Mus musculus [10]): 3
TDS (Mus musculus [11]): 6
TDS (Mus musculus [12]): 6
TDS (Mus musculus [13]): 6
TDS (Mus musculus [14]): 6
TDS (Mus musculus [15]): 6
T/C (Mus musculus [16]): 136%
T/C (Mus musculus [17]): 153%
T/C (Mus musculus [18]): 153%
T/C (Mus musculus [19]): 142%
T-C (Mus musculus [20]): -3 g

CNC(=O)OCc1c(COC(=O)NC)c2n(c1C)-c1ccccc1CCC2
KE (Mus musculus [21]): 1
KE (Mus musculus [22]): 1.19
KE (Mus musculus [23]): 0.55
T-C (Mus musculus [24]): -2.2 g
T-C (Mus musculus [25]): -1.7 g
T-C (Mus musculus [26]): -2.6 g
T-C (Mus musculus [27]): -0.9 g
TDS (Mus musculus [28]): 6
TDS (Mus musculus [29]): 6
TDS (Mus musculus [30]): 6
TDS (Mus musculus [31]): 0
TDS (Mus musculus [32]): 6
T/C (Mus musculus [33]): 147%
T/C (Mus musculus [34]): 152%
T/C (Mus musculus [35]): 154%
TDS (Mus musculus [36]): 6
